Reference: PubChem BioAssay AID1259407 (Chemical Carcinogenesis Research Information System (CCRIS), 2018)
The source made the active and inactive calls. The rule behind the calls is not given here.

Test system: CCRIS mutagenicity, Ames/micronucleus/aberration tests
Assay: CCRIS mutagenicity studies
[1] = Test System: AMES SALMONELLA TYPHIMURIUM, Strain/Indicator: TA100, Metabolic Activation: RAT, LIVER, S-9, AROCLOR 1254, Method: STANDARD PLATE
[2] = Test System: AMES SALMONELLA TYPHIMURIUM, Strain/Indicator: TA98, Metabolic Activation: NONE, Method: STANDARD PLATE
[3] = Test System: AMES SALMONELLA TYPHIMURIUM, Strain/Indicator: TA100, Metabolic Activation: NONE, Method: STANDARD PLATE

SMILES: O=C(NC(=S)NNC(=O)c1cc(O)ccc1O)c1ccccc1
- mutagenic call (Test System: AMES SALMONELLA TYPHIMURIUM, Strain/Indicator: TA1530, Metabolic Activation: NONE, Method: STANDARD PLATE): active; positive

SMILES: CC[C@H]1OC(=O)[C@H](C)[C@@H](O[C@H]2C[C@@](C)(OC)[C@@H](O)[C@H](C)O2)[C@H](C)[C@@H](O[C@@H]2O[C@H](C)C[C@H](N(C)C)[C@H]2O)[C@](C)(O)C[C@@H](C)[C@@H]2N[C@@H](COCCOC)O[C@H]([C@H]2C)[C@]1(C)O
- mutagenic call (End Point: In vitro chromosomal aberrations, Test System: Chinese hamster lung (CHL) cells, Metabolic Activation: None): inactive; negative
- mutagenic call (End Point: In vitro chromosomal aberrations, Test System: Chinese hamster lung (CHL) cells, Metabolic Activation: S-9): inactive; negative

SMILES: CCCCOCCCC
- mutagenic call (Test System: AMES SALMONELLA TYPHIMURIUM, Strain/Indicator: TA97, Metabolic Activation: HAMSTER, LIVER, S-9, AROCLOR 1254 (10%), Method: PREINCUBATION): inactive; negative
- mutagenic call (Test System: AMES SALMONELLA TYPHIMURIUM, Strain/Indicator: TA97, Metabolic Activation: HAMSTER, LIVER, S-9, AROCLOR 1254 (30%), Method: PREINCUBATION): inactive; negative
- mutagenic call (Test System: AMES SALMONELLA TYPHIMURIUM, Strain/Indicator: TA97, Metabolic Activation: NONE, Method: PREINCUBATION): inactive; negative
- mutagenic call (Test System: AMES SALMONELLA TYPHIMURIUM, Strain/Indicator: TA97, Metabolic Activation: RAT, LIVER, S-9, AROCLOR 1254 (10%), Method: PREINCUBATION): inactive; negative
- mutagenic call (Test System: AMES SALMONELLA TYPHIMURIUM, Strain/Indicator: TA97, Metabolic Activation: RAT, LIVER, S-9, AROCLOR 1254 (30%), Method: PREINCUBATION): inactive; negative
- mutagenic call (Test System: AMES SALMONELLA TYPHIMURIUM, Strain/Indicator: TA98, Metabolic Activation: HAMSTER, LIVER, S-9, AROCLOR 1254 (10%), Method: PREINCUBATION): inactive; negative
- mutagenic call (Test System: AMES SALMONELLA TYPHIMURIUM, Strain/Indicator: TA98, Metabolic Activation: HAMSTER, LIVER, S-9, AROCLOR 1254 (30%), Method: PREINCUBATION): inactive; negative
- mutagenic call (Test System: AMES SALMONELLA TYPHIMURIUM, Strain/Indicator: TA98, Metabolic Activation: NONE, Method: PREINCUBATION): inactive; negative
- mutagenic call (Test System: AMES SALMONELLA TYPHIMURIUM, Strain/Indicator: TA98, Metabolic Activation: RAT, LIVER, S-9, AROCLOR 1254 (10%), Method: PREINCUBATION): inactive; negative
- mutagenic call (Test System: AMES SALMONELLA TYPHIMURIUM, Strain/Indicator: TA98, Metabolic Activation: RAT, LIVER, S-9, AROCLOR 1254 (30%), Method: PREINCUBATION): inactive; negative
- mutagenic call (Test System: AMES SALMONELLA TYPHIMURIUM, Strain/Indicator: TA100, Metabolic Activation: HAMSTER, LIVER, S-9, AROCLOR 1254 (10%), Method: PREINCUBATION): inactive; negative
- mutagenic call (Test System: AMES SALMONELLA TYPHIMURIUM, Strain/Indicator: TA100, Metabolic Activation: HAMSTER, LIVER, S-9, AROCLOR 1254 (30%), Method: PREINCUBATION): inactive; negative
- mutagenic call (Test System: AMES SALMONELLA TYPHIMURIUM, Strain/Indicator: TA100, Metabolic Activation: NONE, Method: PREINCUBATION): inactive; negative
- mutagenic call (Test System: AMES SALMONELLA TYPHIMURIUM, Strain/Indicator: TA100, Metabolic Activation: RAT, LIVER, S-9, AROCLOR 1254 (10%), Method: PREINCUBATION): inactive; negative
- mutagenic call (Test System: AMES SALMONELLA TYPHIMURIUM, Strain/Indicator: TA100, Metabolic Activation: RAT, LIVER, S-9, AROCLOR 1254 (30%), Method: PREINCUBATION): inactive; negative
- mutagenic call (Test System: AMES SALMONELLA TYPHIMURIUM, Strain/Indicator: TA1535, Metabolic Activation: HAMSTER, LIVER, S-9, AROCLOR 1254 (10%), Method: PREINCUBATION): inactive; negative
- mutagenic call (Test System: AMES SALMONELLA TYPHIMURIUM, Strain/Indicator: TA1535, Metabolic Activation: HAMSTER, LIVER, S-9, AROCLOR 1254 (30%), Method: PREINCUBATION): inactive; negative
- mutagenic call (Test System: AMES SALMONELLA TYPHIMURIUM, Strain/Indicator: TA1535, Metabolic Activation: NONE, Method: PREINCUBATION): inactive; negative
- mutagenic call (Test System: AMES SALMONELLA TYPHIMURIUM, Strain/Indicator: TA1535, Metabolic Activation: RAT, LIVER, S-9, AROCLOR 1254 (10%), Method: PREINCUBATION): inactive; negative
- mutagenic call (Test System: AMES SALMONELLA TYPHIMURIUM, Strain/Indicator: TA1535, Metabolic Activation: RAT, LIVER, S-9, AROCLOR 1254 (30%), Method: PREINCUBATION): inactive; negative

SMILES: CCCCOc1cc2c(c3ccc4ccccc4c13)CCC2=O
- mutagenic call [1]: inactive; negative

SMILES: [Cl][Rh-2]([Cl])([Cl])([Cl])[Cl]
- mutagenic call (Test System: AMES SALMONELLA TYPHIMURIUM, Strain/Indicator: TA97A, Metabolic Activation: NONE, Method: STANDARD PLATE): inactive; negative
- mutagenic call (Test System: AMES SALMONELLA TYPHIMURIUM, Strain/Indicator: TA97A, Metabolic Activation: RAT, LIVER, S-9, PHENOBARBITAL AND 5,6-BENZOFLAVONE, Method: STANDARD PLATE): active; positive
- mutagenic call (Test System: AMES SALMONELLA TYPHIMURIUM, Strain/Indicator: TA97A, Metabolic Activation: RAT, LIVER, S-9, PHENOBARBITAL AND BETA-NAPHTHOFLAVONE, Method: STANDARD PLATE): active; positive
- mutagenic call [2]: active; positive
- mutagenic call (Test System: AMES SALMONELLA TYPHIMURIUM, Strain/Indicator: TA98, Metabolic Activation: RAT, LIVER, S-9, PHENOBARBITAL AND 5,6-BENZOFLAVONE, Method: STANDARD PLATE): active; positive
- mutagenic call (Test System: AMES SALMONELLA TYPHIMURIUM, Strain/Indicator: TA98, Metabolic Activation: RAT, LIVER, S-9, PHENOBARBITAL AND BETA-NAPHTHOFLAVONE, Method: STANDARD PLATE): active; positive
- mutagenic call [3]: inactive; negative
- mutagenic call (Test System: AMES SALMONELLA TYPHIMURIUM, Strain/Indicator: TA100, Metabolic Activation: RAT, LIVER, S-9, PHENOBARBITAL AND 5,6-BENZOFLAVONE, Method: STANDARD PLATE): active; positive
- mutagenic call (Test System: AMES SALMONELLA TYPHIMURIUM, Strain/Indicator: TA100, Metabolic Activation: RAT, LIVER, S-9, PHENOBARBITAL AND BETA-NAPHTHOFLAVONE, Method: STANDARD PLATE): active; positive
- mutagenic call (Test System: AMES SALMONELLA TYPHIMURIUM, Strain/Indicator: TA102, Metabolic Activation: NONE, Method: STANDARD PLATE): active; positive
- mutagenic call (Test System: AMES SALMONELLA TYPHIMURIUM, Strain/Indicator: TA102, Metabolic Activation: RAT, LIVER, S-9, PHENOBARBITAL AND 5,6-BENZOFLAVONE, Method: STANDARD PLATE): active; positive
- mutagenic call (Test System: AMES SALMONELLA TYPHIMURIUM, Strain/Indicator: TA102, Metabolic Activation: RAT, LIVER, S-9, PHENOBARBITAL AND BETA-NAPHTHOFLAVONE, Method: STANDARD PLATE): active; positive

SMILES: COc1cc([N+](=O)[O-])c(O)c(C(C)(C)C)c1
- mutagenic call [2]: inactive; negative
- mutagenic call (Test System: AMES SALMONELLA TYPHIMURIUM, Strain/Indicator: TA98, Metabolic Activation: RAT, LIVER, S-9, AROCLOR 1254, Method: STANDARD PLATE): inactive; negative
- mutagenic call [3]: inactive; negative
- mutagenic call [1]: inactive; negative
